Results published in ChEMBL document CHEMBL1136533, “Hemisynthesis and preliminary evaluation of novel endocannabinoid analogues” (Bioorg Med Chem Lett, 2003).

What was measured:
[1] = target: Cannabinoid receptor 1 (Rattus norvegicus) (UniProt P20272); assay: Percentage affinity towards Cannabinoid receptor 1 using [3H]CP-55940 as radioligand in rat forebrain membranes; format: cell membranes; conditions: Membrane
[2] = target: T1, Fatty-acid amide hydrolase 1 (Rattus norvegicus, UniProt P97612); assay: Binding affinity towards Fatty-acid amide hydrolase (FAAH) in rat forebrain membranes; format: cell membranes, Membrane
T1 sequence (P97612 whole entry): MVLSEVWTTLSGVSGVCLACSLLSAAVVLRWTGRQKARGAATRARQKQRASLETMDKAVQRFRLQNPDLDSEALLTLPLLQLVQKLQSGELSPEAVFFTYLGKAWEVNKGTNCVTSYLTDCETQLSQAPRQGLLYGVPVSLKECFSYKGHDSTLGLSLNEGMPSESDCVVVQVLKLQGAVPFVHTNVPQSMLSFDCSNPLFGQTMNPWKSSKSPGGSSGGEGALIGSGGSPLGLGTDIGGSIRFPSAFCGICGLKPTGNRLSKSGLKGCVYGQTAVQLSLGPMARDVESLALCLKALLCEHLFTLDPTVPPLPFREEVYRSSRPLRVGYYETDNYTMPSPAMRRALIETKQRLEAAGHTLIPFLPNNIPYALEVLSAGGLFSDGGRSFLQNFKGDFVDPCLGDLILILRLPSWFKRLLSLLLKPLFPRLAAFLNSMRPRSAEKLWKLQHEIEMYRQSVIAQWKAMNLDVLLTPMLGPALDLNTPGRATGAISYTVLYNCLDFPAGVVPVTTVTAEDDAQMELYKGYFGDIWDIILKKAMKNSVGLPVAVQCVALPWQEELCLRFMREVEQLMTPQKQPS

Cannabinoid receptor 1 = Cannabinoid receptor 1 (Rattus norvegicus, UniProt P20272); assay: Binding affinity towards Cannabinoid receptor 1 in rat forebrain membranes using [3H]CP-55940 as radioligand; format: cell membranes, Membrane
Cannabinoid receptor 1, sequence (P20272 whole entry): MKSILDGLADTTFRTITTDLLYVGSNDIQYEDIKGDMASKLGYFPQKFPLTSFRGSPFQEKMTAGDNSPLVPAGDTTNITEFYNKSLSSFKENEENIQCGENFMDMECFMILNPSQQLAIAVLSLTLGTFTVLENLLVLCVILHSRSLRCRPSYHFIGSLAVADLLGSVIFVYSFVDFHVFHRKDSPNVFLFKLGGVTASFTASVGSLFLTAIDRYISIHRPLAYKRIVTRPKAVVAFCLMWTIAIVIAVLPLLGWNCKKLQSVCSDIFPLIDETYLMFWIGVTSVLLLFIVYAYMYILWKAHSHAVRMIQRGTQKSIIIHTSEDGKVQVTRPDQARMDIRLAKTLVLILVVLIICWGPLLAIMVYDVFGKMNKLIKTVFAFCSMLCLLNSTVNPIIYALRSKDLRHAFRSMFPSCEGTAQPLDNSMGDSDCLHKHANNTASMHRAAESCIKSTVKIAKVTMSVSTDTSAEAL

[3] = target: T2, Fatty-acid amide hydrolase 1 (Rattus norvegicus) (UniProt P97612); assay: Inhibitory effect on the Fatty-acid amide hydrolase (FAAH) activity was determined by % inhibition of anandamide hydrolysis at 10 uM concentration of compound; format: functional
T2 sequence (whole entry): T1 sequence (P97612 whole entry)

[4] = target: T2, Fatty-acid amide hydrolase 1 (Rattus norvegicus); assay: Inhibitory effect on the Fatty-acid amide hydrolase (FAAH) activity was determined by % inhibition of anandamide hydrolysis at 1 uM concentration of compound; format: functional

Cannabinoid receptor 1 (Rattus norvegicus), sequence (P20272 whole entry): as above

SMILES	Affinity [1]	Ki [2]	Ki (Cannabinoid receptor 1)	Inhibition of anandamide hydrolysis [3]	Inhibition of anandamide hydrolysis [4]
CCCCC/C=C\C/C=C\C/C=C\C/C=C\CCCC(=O)NCCO [ANANDAMIDE]	19%	3000 nM	–	–	–
CCCCC/C=C\C/C=C\C/C=C\C/C=C\CCCC(=O)OCCO	83%	–	> 10000 nM	70%	100%
CCCCC/C=C\C/C=C\CCCCCCCC(=O)CCCO	72%	–	–	100%	100%
CCCCC/C=C\C/C=C\C/C=C\C/C=C\CCC(C)(C)C(=O)OCCO	100%	2100 nM	> 10000 nM	12%	90%
CCCCC/C=C\C/C=C\C/C=C\C/C=C\CCCC(=O)CCCO	38%	–	360 nM	78%	91%
